Test results as given in US20090143328A1, “Method of Treating Cancer by Administration of Topical Active Corticosteroids” (priority 2001, published 2009).

Assays:
Format in all cases: in vivo, human
[1] = Safety assessment in the same trial; conditions: oral BDP 2 mg four times daily for 50 days plus prednisone induction vs placebo
Description: (§1) Safety was primarily assessed based on the following: 1) cumulative systemic corticosteroid exposure, 2) the incidence and degree of HPA axis suppression in patients who had not experienced treatment failure by study day 50, 3) rates of treatment-emergent adverse events, and 4) the overall survival rate 200 days post-transplant.
(§2) The primary analysis of the primary and secondary efficacy endpoints was based on the intent-to-treat principle. The analysis of the primary efficacy endpoint was based on the Kaplan-Meier method and log-rank test stratified by source of allograft. Hypothesis tests of the primary and secondary efficacy endpoints were performed using a two-sided significance level of 0.05. No adjustments were made to the significance level for inferential tests of the secondary efficacy endpoints. All patients who received at least one dose of BDP or placebo were included in the assessment of safety.

[2] = system: graft versus leukemia effect (GVL); test: Overall survival 200 days post-transplant in the same trial (Kaplan-Meier, Cox proportional hazards models)
Procedure: (§3) A randomized, prospective, double blind, placebo controlled, multi-center pivotal trial was conducted to evaluate beclomethasone dipropionate (BDP) as a treatment of cancer by enhancing the graft versus leukemia effect (GVL) while controlling graft versus host disease (GVHD) following hematopoietic stem cell transplant in blood-borne cancer patients. The trial was divided into two phases, the purpose was to monitor short term effectiveness of BDP to control graft versus host disease in the first phase and the second phase was to assess the effect of the drug treatment on long term survival due to recurrence of hematologic malignancy or other causes of death.
(§4) To minimize the exposure of patients to long term exposure to systemic corticosteroids (prednisone or prednisolone), which are used as the standard of care to prevent or treat symptoms of graft versus host disease in conjunction with other immunosuppressive drugs, patients were treated with an oral formulation of BDP. BDP was formulated as two separate oral dosage forms an immediate release (IR) tablet and an enteric coated (EC) tablet. 129 patients were enrolled and 67 patients were randomized to placebo and 62 to BDP, Patients were at least 10 days post allogeneic hematopoietic cell transplantation, had gastrointestinal symptoms consistent with Grade II GVHD, and had endoscopic evidence of GVHD. The diagnosis of GVHD was confirmed by biopsy of the intestine (esophagus, stomach, small intestine, or colon) or skin. After being diagnosed with GVHD, patients were started on standard prednisone therapy. Patients were administered 2 mg/kg/day or 1 mg/kg/day for 10 days as a starting dose. After 10 days at this initial dose, prednisone was tapered over 7 days, after which the patients were maintained on a maintenance physiologic replacement dose of prednisone of 0.0625 mg/kg/day or 0.125 mg/kg/day. Concurrently, patients received BDP at a dose of 2 mg four times daily, for a total dose of 8 mg, or placebo for a maximum of 50 days.
as §1, §2
Based on a univariate time-dependent Cox proportional hazards model, the risk of mortality during this period was 68% lower following the initiation of treatment with BDP when compared to no treatment (hazard ratio 0.32; 95% CI: 0.12, 0.87; p=0.0252). A multivariate Cox model was used to evaluate the effect of BDP while simultaneously accounting for selected competing causes of mortality after hematopoietic cell transplant. The competing causes of mortality included the subject's age and gender, intensity of the conditioning regimen (myeloablative, non-myeloablative), primary diagnosis, transplant source (bone marrow, peripheral blood stem cells), and degree of HLA match, with greater benefit seen in the patients receiving non-myeloabaltive pre-conditioning.
The hazard ratio for each variable was estimated from a multivariate Cox proportional hazards model.

[3] = system: graft versus host disease (GVHD); test: Randomized, double blind, placebo controlled trial of oral BDP: time to treatment failure (GVHD) through study days 50 and 80
Procedure: as §3, §4
Patients were monitored at clinic visits for evidence of increase in symptoms of GVHD (primary treatment failure). The primary efficacy endpoint was the time to treatment failure through study day 50. Treatment failure was defined as a worsening or recurrence of GVHD of such degree as to require an increase in immunosuppressive therapy. A subject was defined as a treatment failure if the patient required prednisone or equivalent IV corticosteroids at doses higher than that specified in the protocol, in response to uncontrolled signs or symptoms of GVHD; or required additional immunosuppressant medications other than those permitted by the protocol in response to uncontrolled signs or symptoms of GVHD. The time to treatment failure was calculated as the number of days elapsed between the randomization date and the date on which the subject was first identified as a treatment failure by the investigator.
Secondary efficacy endpoints included: 1) the time to treatment failure through study day 80, 2) the proportion of subjects who experienced treatment failure by study days 10, 30, 50, 60, and 80, and 3) Karnofsky performance status scores.
as §2
The hazard ratio was estimated from a univariate Cox proportional hazards model. Placebo serves as the reference group.

[4] = Kaplan-Meier estimate, fraction, all randomized subjects

Compound: CCC(=O)OCC(=O)[C@@]1(OC(=O)CC)[C@@H](C)C[C@H]2[C@@H]3CCC4=CC(=O)C=C[C@]4(C)[C@@]3(Cl)[C@@H](O)C[C@@]21C [BDP, beclomethasone dipropionate]
- Clinically significant toxicity [1]: without an increase in clinically significant toxicity
- Relative reduction in mortality at 200 days post transplant ([2]; 200 days post transplant): 69%
- Deaths with relapse of the underlying malignancy as primary cause, number of patients ([2]; 200 days post-transplant): 2 patients
- Deaths with relapse of the underlying malignancy as primary cause, share of group ([2]; 200 days post-transplant): 3%
- Hazard ratio, mortality, univariate time-dependent Cox model ([2]; 200 days post-transplant, BDP vs no treatment): 0.32
- Overall survival rate 200 days post-transplant ([2]; Kaplan-Meier estimate, fraction): 0.91
- Coefficient (bi), multivariate proportional hazards model for overall survival 200 days post-transplant ([2]; safety population): −1.155
- HR [exp(bi)], duration of overall survival 200 days post-transplant, multivariate Cox model ([2]; safety population, adjusted for competing causes of mortality): 0.32
- Lowering of risk of mortality following initiation of BDP compared to no treatment ([2]; univariate time-dependent Cox proportional hazards model, 200 days post-transplant): 68%
- Reduction of risk of treatment failure relative to placebo, 50-day study treatment period ([3]; 50-day study treatment period): 37%
- Increase of median time to treatment failure compared to placebo ([3]; 80-day study period): more than 28 days
- Reduction of risk of treatment failure relative to placebo, entire 80-day study period ([3]; 80-day study period): 44%
- Treatment failure rate by Study Day 50 [3, 4]: 0.31
- Treatment failure rate by Study Day 80 [3, 4]: 0.39
- Median time to treatment failure (95% CI), through Study Day 50 ([3]; all randomized subjects): Not achieved
- Median time to treatment failure (95% CI), through Study Day 80 ([3]; all randomized subjects): Not achieved
- Patients who met the treatment failure endpoint during the first 10 days of study treatment ([3]; first 10 days, all patients on high-dose prednisone): Eight
- Number with treatment failure, through Study Day 50 ([3]; intent-to-treat, BDP N = 62, 2 mg four times daily oral, with prednisone induction and taper): 18
- Number with treatment failure, through Study Day 80 ([3]; intent-to-treat, BDP N = 62, includes 30-day post-treatment observation period): 22
- Share of the total number of treatment failures that occurred within the first 10 days of randomization ([3]; prior to the prednisone taper): 44%
- Cumulative treatment failure rate by study day 50 ([3]; study day 50): 31%
- Cumulative treatment failure rate by study day 80 ([3]; study day 80): 39%
